Read-outs that look alike come from different tables or passages of the source.
Tests used:
[1] = target: dopamine transporter (DAT) (Homo sapiens, UniProt Q01959); conditions: presynaptic membrane of dopaminergic neurons; cited from earlier work
[2] = target: T1, SERT (Homo sapiens, UniProt P31645); experiment: [123I]FP-CIT SPECT ROI analysis, extrastriatal (hypothalamus) binding ratios; type: in vivo; conditions: without SSRI users, reference cerebellum
T1 construct: from tissue; host or cells: living patients' brain: hypothalamus, thalamus, pons (extrastriatal regions)
Excerpt: Diagnoses of patients were verified using their medical records. […]
One-way ANOVA tests were used where appropriate. Post-hoc testing was done with Hochberg GT2 correction. An alpha level of 0.05 was used.

[3] = target: serotonin transporter (SERT) (Homo sapiens, UniProt P31645); conditions: Abi-Dargham et al. 1996; cited from earlier work
[4] = target: T1, SERT; experiment: Voxel-based analysis of [123I]FP-CIT SPECT, extrastriatal binding; type: in vivo; conditions: groups without SSRI users
Protocol: All voxels in the [^123I]FP-CIT SPECT scan were adjusted by the mean binding in the cerebellar reference region according to: [(voxel−REF)/REF]. Voxel-based between-group analyses were performed in SPM8 and explicitly masked for the relevant ROI, using the same masks as the ROI analysis. Statistical threshold was set to P<0.05, Family-Wise Error (FWE) corrected for multiple comparisons, Ke>0. Age was included as nuisance covariate in all analyses.
Masks were based on the Automated anatomical labeling (AAL) atlas and created with the Wake-Forest University PickAtlas tool 3.0. Finally, the results of groups on SSRIs versus not being on a SSRI while scanned were compared with a ROI analysis.
Voxel-Based, Groups without SSRI Users, Extrastriatal Binding

[5] = target: DAT (Homo sapiens, UniProt Q01959); conditions: without SSRI users, reference cerebellum
Excerpt: For this retrospective study, a selection was made from a database of patients diagnosed with either PD, MSA or PSP and for whom a [^123I]FP-CIT-SPECT scan was available. Diagnoses of patients were verified using their medical records. Patients no longer receiving treatment or clinical follow-up were approached by letter and diagnoses were retrieved from their current attending neurologist. This procedure was approved by the local Medical Ethics Committee of the VUmc and all patients provided written informed consent. […] Prior to analysis of [^123I]FP-CIT-SPECT binding ratios (BR), MSA and PSP patients were manually age and gender-matched with 30 PD patients from a research database.
All patients received oral potassium perchlorate to block thyroid uptake of free radioactive iodide. [^123I]FP-CIT was injected intravenously 3 hours before image acquisition at an approximate dose of 185 MBq (specific activity >185 MBq/nmol; radiochemical purity >99%). Subjects were imaged using a dual-head gamma camera (E.Cam; Siemens. Munich. Germany) with a fan-beam collimator. 60×30 second views per head over a 180° orbit on a 128×128 pixel matrix were acquired resulting in a total imaging time of 30 minutes. Image reconstruction was performed using a filtered back projection with a Butterworth filter (order 8. cut-off 0.6 cycles/cm; voxel size: 3.9 mm^3 after reconstruction). Scans were reoriented manually to ensure that left and right striatum were aligned.
ROIs were defined for the DAT-rich caudate nucleus and the SERT-rich thalamus from the automated anatomical labelling (AAL) atlas; the DAT-rich posterior putamen was bilaterally based on the AAL atlas as described elsewhere (Vriend, C. et al. 2014 Mov Disord; 29: 904-11) the SERT-rich pons ROI was based on the Talairach Daemon (TD) Lobes atlas; and the SERT-rich hypothalamus ROI was based on the TD Brodmann area+atlas and 2× dilated. All of these ROIs are implemented in the WFU Pickatlas 3.0 (Wake Forest University, Winston-Salem, N.C., USA).
Non-specific [^123I]FP-CIT binding in the cerebellum was used as a reference (REF) (WFU Pickatlas, AAL atlas; bilateral Crus 2), because the cerebellum is relatively devoid of DAT and SERT. The ratio of specific to non-specific binding (BR), was calculated in Statistical Parametric Mapping Software version 8 (SPM8; Wellcome Trust Centre for Neuroimaging. London. UK) by: [(ROI−REF)/REF], and used as the outcome measure.
Patient analyses were grouped by diagnosis (PD; MSA-P; MSA-C; PSP). MSA was split, since a difference is expected between DAT binding in MSA-P and MSA-C (Munoz E., et al. 2011 J Neurol; 258: 2248-2253).
For the ROI analysis, normality of data was assessed by plotting histograms, examining Q-Q plots and Kolmogorov-Smirnov test for normality. One-way ANOVA tests were used where appropriate. Post-hoc testing was done with Hochberg GT2 correction. An alpha level of 0.05 was used.
ROI analysis in groups without SSRI users (total group n=48: MSA-C=7; MSA-P=6; PSP=10; PD=25)

[6] = target: T1, SERT; conditions: cited from earlier work

Sequence of DAT (Q01959 whole entry): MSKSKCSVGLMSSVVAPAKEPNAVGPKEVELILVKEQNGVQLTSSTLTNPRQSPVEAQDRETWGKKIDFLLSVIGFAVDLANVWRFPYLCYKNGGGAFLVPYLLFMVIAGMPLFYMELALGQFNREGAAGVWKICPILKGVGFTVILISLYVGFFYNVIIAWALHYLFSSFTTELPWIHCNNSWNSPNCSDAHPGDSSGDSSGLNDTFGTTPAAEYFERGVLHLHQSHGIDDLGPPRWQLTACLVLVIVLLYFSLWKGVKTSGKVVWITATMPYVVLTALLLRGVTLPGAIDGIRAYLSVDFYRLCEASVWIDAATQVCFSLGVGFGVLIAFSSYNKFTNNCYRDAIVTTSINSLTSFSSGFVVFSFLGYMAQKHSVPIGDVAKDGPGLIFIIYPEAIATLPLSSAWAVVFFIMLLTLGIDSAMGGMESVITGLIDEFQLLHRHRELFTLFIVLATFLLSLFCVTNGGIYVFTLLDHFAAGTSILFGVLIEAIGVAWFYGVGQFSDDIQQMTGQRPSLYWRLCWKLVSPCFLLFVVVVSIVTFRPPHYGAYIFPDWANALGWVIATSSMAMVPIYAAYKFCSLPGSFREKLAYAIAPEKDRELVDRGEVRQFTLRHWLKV
T1 sequence (P31645 whole entry): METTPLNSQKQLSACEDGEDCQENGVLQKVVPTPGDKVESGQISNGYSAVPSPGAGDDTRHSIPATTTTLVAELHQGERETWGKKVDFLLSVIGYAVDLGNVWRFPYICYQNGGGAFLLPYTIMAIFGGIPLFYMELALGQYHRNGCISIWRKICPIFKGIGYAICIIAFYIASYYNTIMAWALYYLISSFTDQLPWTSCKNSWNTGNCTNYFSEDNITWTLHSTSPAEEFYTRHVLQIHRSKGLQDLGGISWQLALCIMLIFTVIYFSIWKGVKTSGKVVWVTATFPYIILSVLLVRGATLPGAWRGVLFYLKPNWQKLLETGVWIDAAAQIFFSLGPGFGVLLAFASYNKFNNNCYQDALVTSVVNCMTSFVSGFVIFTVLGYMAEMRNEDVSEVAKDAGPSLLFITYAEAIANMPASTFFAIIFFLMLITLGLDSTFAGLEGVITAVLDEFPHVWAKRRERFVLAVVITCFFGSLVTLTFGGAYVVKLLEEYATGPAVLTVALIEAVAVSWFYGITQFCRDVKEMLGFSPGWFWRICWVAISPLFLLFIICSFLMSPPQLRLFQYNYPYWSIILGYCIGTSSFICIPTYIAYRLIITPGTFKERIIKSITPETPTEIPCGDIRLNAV
Sequence of dopamine transporter (DAT) (Q01959 whole entry, species assumed): as the sequence (Q01959 whole entry) above
Sequence of serotonin transporter (SERT) (P31645 whole entry, species assumed): as the sequence (P31645 whole entry) above

SMILES: COC(=O)[C@H]1[C@@H](c2ccc([123I])cc2)C[C@@H]2CC[C@H]1N2CCCF [[^123I]FP-CIT, [^123I]N-w-fluoropropyl-2β-carbomethoxy-3β-(4-iodophenyl) nortropane]
- affinity to the dopamine transporter (DAT) [1]: high affinity
- mean hypothalamic [123I]FP-CIT binding ratio ([2]; MSA-C patients): 0.78
- mean hypothalamic [123I]FP-CIT binding ratio ([2]; MSA-P patients): 0.45
- mean hypothalamic [123I]FP-CIT binding ratio ([2]; PD patients): 0.67
- mean hypothalamic [123I]FP-CIT binding ratio ([2]; PSP patients): 0.47
- affinity for the serotonin transporter (SERT) [3]: modest affinity
- hypothalamus binding ratios, between-group comparison (voxel-based) ([4]; MSA-C vs PSP): higher binding ratios in hypothalamus in MSA-C than in PSP
- hypothalamus binding, between-group comparison (voxel-based) ([4]; PD vs MSA-P or PSP): statistically significantly higher in PD than in MSA-P or PSP
- mean [123I]FP-CIT binding ratio, left caudate ([5]; MSA-C patients): 1.99
- mean [123I]FP-CIT binding ratio, left posterior putamen ([5]; MSA-C patients): 2.12
- mean [123I]FP-CIT binding ratio, right caudate ([5]; MSA-C patients): 2.16
- mean [123I]FP-CIT binding ratio, right posterior putamen ([5]; MSA-C patients): 1.95
- mean [123I]FP-CIT binding ratio, left posterior putamen ([5]; MSA-P patients): 1.36
- mean [123I]FP-CIT binding ratio, right posterior putamen ([5]; MSA-P patients): 1.19
- mean [123I]FP-CIT binding ratio, left caudate ([5]; PD patients): 1.87
- mean [123I]FP-CIT binding ratio, left posterior putamen ([5]; PD patients): 1.58
- mean [123I]FP-CIT binding ratio, right caudate ([5]; PD patients): 1.92
- mean [123I]FP-CIT binding ratio, left caudate ([5]; PSP patients): 1.28
- mean [123I]FP-CIT binding ratio, left posterior putamen ([5]; PSP patients): 1.29
- mean [123I]FP-CIT binding ratio, right caudate ([5]; PSP patients): 1.39
- hypothalamus binding, MSA-P and PSP vs PD ([6]; Joling et al. 2016): lower binding in the hypothalamus in MSA-P and PSP patients than in PD patients
- midbrain binding, PSP vs PD ([6]; Roselli et al. 2010): lower in PSP patients than in PD patients
